For data set [1], the system named is MCF7. The data set can be described thus: Antiproliferative activity against human MCF7 cells assessed as reduction in cell viability measured for 48 hrs by MTT assay. The format is functional, cell-based. To be noted: MCF7, 48 h. For orientation: Formazan colour is commonly taken as a measure of viable cells.
Data set [2] relates to MGC-803. The data set can be described thus: Antiproliferative activity against human MGC-803 cells assessed as reduction in cell viability measured for 48 hrs by MTT assay. The class given is functional, cell-based. To be noted: MGC-803, 48 h.
Data set [3] in a line: Inhibition of PI3K/AKT/mTOR signaling pathway in human MDA-MB-231 cells assessed as decrease in mTOR phosphorylation at 1 to 4 uM incubated for 6 hrs by Western blot analysis. The conditions noted are these: dose 1-4 µM. The class given is cell-based. (In general: Immunoblotting shows a protein as a band on a membrane.)
The target in data set [4] is Dual specificity protein kinase CLK4 (Homo sapiens, UniProt Q9HAZ1). The data set is described as follows: Inhibition of CLK4 (unknown origin).
Sequence of Dual specificity protein kinase CLK4 (Q9HAZ1 whole entry): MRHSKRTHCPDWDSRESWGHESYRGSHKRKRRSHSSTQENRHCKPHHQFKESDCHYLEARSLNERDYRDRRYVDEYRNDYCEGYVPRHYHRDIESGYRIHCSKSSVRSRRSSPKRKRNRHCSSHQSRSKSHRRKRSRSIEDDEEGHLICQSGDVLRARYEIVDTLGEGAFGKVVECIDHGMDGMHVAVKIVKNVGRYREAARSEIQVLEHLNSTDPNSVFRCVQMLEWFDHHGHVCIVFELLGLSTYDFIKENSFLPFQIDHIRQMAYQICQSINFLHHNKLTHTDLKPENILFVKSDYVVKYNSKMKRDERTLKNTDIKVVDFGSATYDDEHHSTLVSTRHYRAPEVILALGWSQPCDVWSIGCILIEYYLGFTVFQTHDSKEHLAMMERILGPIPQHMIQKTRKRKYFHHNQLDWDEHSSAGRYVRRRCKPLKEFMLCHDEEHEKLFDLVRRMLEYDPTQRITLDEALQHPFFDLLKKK
A short description of data set [5]: Hepatotoxicity in nude mouse at 10 mg/kg, ip measured for 3 days. The format is toxicity, organism-based. The conditions noted are these: in vivo, 72 h, time 3 day.
For data set [6], the system named is HepG2. The data set can be described thus: Antiproliferative activity against human HepG2 cells assessed as reduction in cell viability measured for 48 hrs by MTT assay. The format is functional, cell-based. The conditions noted are these: HepG2, 48 h.
For data set [7], the system named is NCI-H1299. The data set is described as follows: Antiproliferative activity against human NCI-H1299 cells assessed as reduction in cell viability measured for 48 hrs by MTT assay. The format is functional, cell-based. To be noted: NCI-H1299, 48 h.
A short description of data set [8]: Inhibition of PI3K/AKT/mTOR signaling pathway in human MDA-MB-231 cells assessed as decrease in AKT phosphorylation at 1 to 4 uM incubated for 6 hrs by Western blot analysis. The class given is cell-based. To be noted: dose 1-4 µM.
The nature of data set [9]: Toxicity in nude mouse xenografted with human MDA-MB-231 cells assessed as change in body weight at 10 to 20 mg/kg, ip measured for 3 days. The format is organism-based. The conditions noted are these: in vivo, 72 h, dose 10-20 mg/kg, time 3 day. (In general: A xenograft is tissue or cells of one species grown in another, often human tumour cells in immunodeficient mice.)

A short description of data set [10]: Inhibition of PI3K/AKT/mTOR signaling pathway in human MDA-MB-231 cells assessed as decrease in EGFR expression at 1 to 4 uM incubated for 6 hrs by Western blot analysis. To be noted: dose 1-4 µM. The class given is cell-based.
Data set [11] has as its system HUVEC. The data set can be described thus: Antiangiogenesis activity in HUVEC cells at 0.03 to 0.3 uM incubated for 12 hrs by microscopic analysis. The format is functional, cell-based. The conditions noted are these: Homo sapiens, dose 0.03-0.3 µM.
The subject of data set [12] is MDA-MB-231. The data set can be described thus: Induction of ROS generation in human MDA-MB-231 cells assessed as increase in intracellular ROS level at 40 uM incubated for 48 hrs by DCFH-DA staining based fluorescence microscopic analysis (Rvb=79.6%). The format is functional.
The nature of data set [13]: Inhibition of PI3K/AKT/mTOR signaling pathway in human MDA-MB-231 cells assessed as increase in p38 expression at 2 to 4 uM incubated for 6 hrs by Western blot analysis. The class given is cell-based. To be noted: dose 2-4 µM.

Among the data in ChEMBL document CHEMBL5634109, “Synthesis and mechanism of action of new purine derivatives against triple negative breast cancer” (Eur J Med Chem, 2023) are IC50, inhibition and Activity values, retold here.

Activity calls are given as the source filed them. No cut-off for these calls is given here.

As usually defined, the IC50 is the concentration needed to halve the response being measured. On to `OCCN1CCC(C2CCN(c3nc(NCc4ccc(F)c(Cl)c4)c4ncn(CC5CC5)c4n3)CC2)CC1`, for which the IC50 in [1] was found to be 430 nM; in [2], 3890 nM; in data set [4], 685 nM; in data set [6], 1680 nM; in [7], 4280 nM. Moreover, the inhibition result in data set [3], in data set [8], in data set [10] and in data set [13] was “Active” throughout. The Activity result in [5] is “Non-Toxic”; in [9] it was “Non-Toxic”; in data set [12], 80.7%. Besides, in data set [11], the outcome was Active.
